Experimental data taken from ChEMBL document CHEMBL3137381, “MMV Box Onchocerca lienalis screening set”.

Legend:
Type in all cases: functional
Onchocerca lienalis [1] = assay: MMV: Percent motility assay at a compound concentration of 1.25e-5 M. Activity score legend: 3: Active, 2: Moderately active; 1: Inactive, 0: Toxic; conditions: at 12.5 µM
Onchocerca lienalis [2] = assay: MMV: Percent motility assay at a compound concentration of 3.1e-6 M. Activity score legend: 3: Active, 2: Moderately active; 1: Inactive, 0: Toxic; conditions: at 3.1 µM
Onchocerca lienalis [3] = assay: MMV: Percent motility assay at a compound concentration of 1.9e-7 M. Activity score legend: 3: Active, 2: Moderately active; 1: Inactive, 0: Toxic; conditions: at 0.19 µM
Onchocerca lienalis [4] = assay: MMV: Percent motility assay at a compound concentration of 7.8e-7 M. Activity score legend: 3: Active, 2: Moderately active; 1: Inactive, 0: Toxic; conditions: at 0.78 µM

| SMILES | Motility (Onchocerca lienalis [1]) | Motility (Onchocerca lienalis [2]) | Motility (Onchocerca lienalis [3]) | Motility (Onchocerca lienalis [4]) |
| --- | --- | --- | --- | --- |
| COc1ccc(Nc2nc(N/N=C/c3ccc(O)cc3)nc(Nc3ccc([N+](=O)[O-])cc3)n2)cc1 | 100% | 100% | 100% | 100% |
| Cc1sc(NC(=O)c2ccco2)c(C(c2cccnc2)N2CCC(Cc3ccccc3)CC2)c1C (stereo not given) | 100% | 100% | 100% | 100% |
| O=C(NNc1cc(N2CCCC2)nc(N2CCCC2)n1)c1ccccc1 | 100% | 100% | 100% | 100% |
| COC(=O)c1ccc(Cl)c2c1C1C=CCC1C(c1cccc3ccccc13)N2 (stereo not given) | 100% | 100% | 100% | 100% |
| O=C(CCc1ccccc1)c1ccccc1OCC(O)CN1CCCCC1 (stereo not given) | 100% | 100% | 100% | 100% |
| OC1=C2C(=Nc3ccccc3SC2c2ccccc2)c2ccccc21 (stereo not given) | 100% | 100% | 100% | 100% |
| COc1cc(C(=O)Nc2ccc(-c3nc4ccccc4[nH]3)cc2)cc(OC)c1OC | 100% | 100% | 100% | 100% |
| COC(=O)c1ccc(C2C3=C(O)CC(c4ccc(F)cc4)CC3=Nc3ccccc3N2C(=O)c2ccccc2)cc1 (stereo not given) | 100% | 100% | 100% | 100% |
| CCOc1ccc(CN2CCN(CC(O)COc3ccc(OCC(O)CN4CCN(Cc5ccc(OCC)cc5)CC4)cc3)CC2)cc1 (stereo not given) | 100% | 100% | 100% | 100% |
| CCCCNc1nc(NC(C)(C)C)nc(NC(C)(C)C)n1 | 100% | 100% | 100% | 100% |
| CC(=O)c1sc(NC(=O)Nc2ccc(C)cc2C)nc1C | 100% | 100% | 100% | 100% |
| Cn1c(C(=O)c2cccc3ccccc23)nc2ccccc21 | 100% | 100% | 100% | 100% |
| Oc1ccc2ccccc2c1CNc1nc2ccccc2[nH]1 | 100% | 100% | 100% | 100% |
| O=C(Nc1ccc(-c2nc3ccccc3[nH]2)cc1)c1ccc(Cl)c(Cl)c1 | 100% | 100% | 100% | 100% |
| OCCNc1nc(Nc2ccc(Cl)c(Cl)c2)nc2ccccc12 | 20% | 33.33% | 100% | 100% |
| Nc1ccc(-c2nc3cc(Oc4ccc(Oc5ccc6[nH]c(-c7ccc(N)cc7)nc6c5)cc4)ccc3[nH]2)cc1 | 100% | 100% | 100% | 100% |
| Cc1cc(N(C)C)nc(Nc2ccc(NC(=O)Nc3ccccc3)cc2)n1 | 100% | 100% | 100% | 100% |
| COc1cc(C(=O)ON=C(N)Cc2cccc3ccccc23)cc(OC)c1OC | 100% | 100% | 100% | 100% |
| Oc1c(C(Nc2ccccn2)c2cccc(Oc3ccccc3)c2)ccc2cccnc12 (stereo not given) | 6.66% | 100% | 100% | 100% |
| COc1cc(-c2nc(-c3ccccc3)c(-c3ccccc3)[nH]2)cc(OC)c1O | 100% | 100% | 100% | 100% |
| Cc1ccc(Nc2nc(N)c3ccccc3n2)cc1Cl | 100% | 100% | 100% | 100% |
| CCc1ccc(CNCC(O)c2ccccc2)cc1.Cl (stereo not given) | 100% | 100% | 100% | 100% |
| Br.CCn1c2c(c(=N)c3c1CCC3)CCCC2 | 100% | 100% | 100% | 100% |
| Cc1ccc2c(C)nc(Nc3nc(C)cc(-c4ccccc4)n3)nc2c1 | 100% | 100% | 100% | 100% |
| CCOc1ccc(Nc2ccnc3cc(Cl)ccc23)cc1 | 100% | 100% | 100% | 100% |
| Br.Cc1ccc(C)c(-c2csc(Nc3ccc(C)c(C)c3)n2)c1 | 100% | 100% | 100% | 100% |
| CCCn1c(=N)c(C(=O)NC2CCCCC2)cc2c(=O)n3cccc(C)c3nc21 | 100% | 100% | 100% | 100% |
| Nc1ccn([C@@H]2O[C@H](CO)[C@@H](O)[C@H]2O)c(=O)n1 [CYTIDINE] | 100% | 100% | 100% | 100% |
| O=C(Nc1cccc(C2=NCCN2)c1)Nc1cccc(C2=NCCN2)c1 [IMIDOCARB] | 100% | 100% | 100% | 100% |
| CN(C)c1ccc(C(O)(c2ccc(N(C)C)cc2)c2ccc(N(C)C)cc2)cc1 [METHYLROSANILINE] | 100% | 100% | 100% | 66.66% |
